Results as given in patent US20240294478A1, “ANTI-CANCER COMPOUNDS AND METHODS OF USE” (YALE UNIVERSITY, priority 2021, published 2024).

What was measured:
[1] = tested on: LN229 MGMT−/MMR+ flank tumors; test: Murine flank tumor model, LN229 MGMT-/MMR+; assay type: in vivo, mouse; conditions: 5 mg/kg MWF x 3 weeks, P.O.
Description: FIGS. 9A-91: KL-50 is safe and efficacious on both MGMT−/MMR+ and MGMT−/MMR-flank tumors over a wide range of treatment regimens and conditions. […] (FIG. 9C) Mean body weight of mice during LN229 flank tumor experiments. (FIG. 9D) Kaplan-Meier analysis of LN229 MGMT−/MMR− xenograft flank tumor-bearing mice to determine survival rate based on death, removal from study if mouse body weight loss exceeded 20% of initial body weight, or if tumor volume exceeded 2000 mm^3. […] (FIGS. 9H-91) Xenograft LN229 MGMT−/MMR+ and LN229 MGMT−/MSH6—flank tumors with a larger average starting tumor size of −400 mm^3 and −350 mm^3 respectively, treated with 3 weekly cycles of P.O administration of 10% cyclodextrin (n=4) or KL-50 (n=4, 3 cycles of 25 mg/kg on Monday, Wednesday, and Friday). The study period was limited by control groups which had to be euthanized for exceeding the ethical maximum allowed tumor size, thus ending the study. In all panels, points, mean; error bars, SEM; *, P<0.05; **, P<0.01; ***, P<0.001; ****, P<0.0001; ns, not significant.
Mouse Protocols for Flank Studies. A mouse tumor model was established by subcutaneously implanting human LN229 (MGMT−/MMR+) or LN229 (MGMT−/MMR−) cells. […] During the final centrifugation, viability was determined using trypan blue exclusion. […]

[2] = tested on: LN229 MGMT+/−, MMR+/− cells; test: Micronuclei analysis; assay type: cell-based, human; conditions: 20 μM, 48 h
Description: FIGS. 8A-8K. (FIG. 8A) Change in percent cells with 1 micronuclei from baseline (DMSO control) after treatment as in FIGS. 5A and 5C. Columns, mean; error bars, SD; n>15 technical replicates; **** p<0.0001; ns, not significant. (FIG. 8B) Short-term viability assay curves for KL-50 in PD20 cells, deficient in FANCD2 (FANCD2−/−) or complemented with FANCD2 (+FANCD2). (FIG. 8C) Short-term viability assay curves for KL-50 in PEO4 (BRCA2+) and PEO1 (BRCA2−/−) cells pre-treated with 0.01% DMSO control or 10 μM O^6BG (+O^6BG) for 1 h prior to KL-50 addition. (FIG. 8D) Short-term viability assay curves for KL-50 in DLD1 BRCA2+/− and BRCA2−/−cells pre-treated with 0.01% DMSO control or 10 μM O^6BG (+O^6BG) for 1 h prior to KL-50 addition. For FIGS. 8B-8D, points, mean; error bars, SD; n=3 technical replicates. […] (FIG. 8E) Validation of micronuclei identification using olaparib as positive control. […] The % FANCD2 ubiquitination (% FANCD2 Ub) is quantified as the background-corrected integrated band intensity of the upper band divided by the sum of the background-corrected integrated band intensities of the upper and lower bands. […]
Micronuclei Analysis. An automated image analysis pipeline was developed by YCMD using InCell Analyzer software to quantify micronuclei formation. […]

## NC(=O)c1ncn2c(=O)n(CCF)nnc12 [KL-50]
[1]
  tumor growth, MGMT−/MMR+ flank tumors: statistically non-inferior to TMZ
[2]; greatest in MGMT−/MMR− cells
  micronuclei formation: significant increase in micronuclei

## Cn1nnc2c(C(N)=O)ncn2c1=O [TMZ, 4-methyl-5-oxo-2,3,4,6,8-pentazabicyclo[4.3.0]nona-2,7,9-triene-9-carboxamide, reference compound]
[1]
  tumor growth, MGMT−/MMR+ flank tumors: suppressed tumor growth
[2]
  foci induction or micronuclei formation in MGMT−/MMR− cells: not observed
